Test system: P12-Ichikawa
Assay: cell viability relative to DMSO control; higher = less cytotoxic
Settings: 48 h
Summary of the method: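 Library compounds in DMSO were pin-dosed in an 11-point threefold series (47 μM to 0.79 nM) onto leukemia cells in 1536-well plates (5 μl). Plates held 500 cells/well of NOMO1 or SEM or 1000 cells/well of P12-Ichikawa, each adapted for at least four passages in each medium. Luminescence was read with CellTiter-Glo One after 48 h at 37°C. Viability means the per-plate percentage relative to DMSO wells, using cell-free wells as background.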

[1] = HPLM + 10% dialyzed FBS, 0.000781 µM
[2] = HPLM + 10% dialyzed FBS, 0.00234 µM
[3] = HPLM + 10% dialyzed FBS, 0.00702 µM
[4] = HPLM + 10% dialyzed FBS, 0.0211 µM
[5] = HPLM + 10% dialyzed FBS, 0.0632 µM
[6] = HPLM + 10% dialyzed FBS, 0.19 µM
[7] = HPLM + 10% dialyzed FBS, 0.569 µM
[8] = HPLM + 10% dialyzed FBS, 1.71 µM
[9] = HPLM + 10% dialyzed FBS, 5.12 µM
[10] = HPLM + 10% dialyzed FBS, 15.4 µM
[11] = HPLM + 10% dialyzed FBS, 46.1 µM
[12] = RPMI 5 mM glucose + 10% FBS, 0.000781 µM
[13] = RPMI 5 mM glucose + 10% FBS, 0.00234 µM
[14] = RPMI 5 mM glucose + 10% FBS, 0.00702 µM
[15] = RPMI 5 mM glucose + 10% FBS, 0.0211 µM
[16] = RPMI 5 mM glucose + 10% FBS, 0.0632 µM
[17] = RPMI 5 mM glucose + 10% FBS, 0.19 µM
[18] = RPMI 5 mM glucose + 10% FBS, 0.569 µM
[19] = RPMI 5 mM glucose + 10% FBS, 1.71 µM
[20] = RPMI 5 mM glucose + 10% FBS, 5.12 µM
[21] = RPMI 5 mM glucose + 10% FBS, 15.4 µM
[22] = RPMI 5 mM glucose + 10% FBS, 46.1 µM
[23] = RPMI 5 mM glucose + 10% dialyzed FBS, 0.000781 µM
[24] = RPMI 5 mM glucose + 10% dialyzed FBS, 0.00234 µM
[25] = RPMI 5 mM glucose + 10% dialyzed FBS, 0.00702 µM
[26] = RPMI 5 mM glucose + 10% dialyzed FBS, 0.0211 µM
[27] = RPMI 5 mM glucose + 10% dialyzed FBS, 0.0632 µM
[28] = RPMI 5 mM glucose + 10% dialyzed FBS, 0.19 µM
[29] = RPMI 5 mM glucose + 10% dialyzed FBS, 0.569 µM
[30] = RPMI 5 mM glucose + 10% dialyzed FBS, 1.71 µM
[31] = RPMI 5 mM glucose + 10% dialyzed FBS, 5.12 µM
[32] = RPMI 5 mM glucose + 10% dialyzed FBS, 15.4 µM
[33] = RPMI 5 mM glucose + 10% dialyzed FBS, 46.1 µM

SMILES | cell viability [1] | cell viability [2] | cell viability [3] | cell viability [4] | cell viability [5] | cell viability [6] | cell viability [7] | cell viability [8] | cell viability [9] | cell viability [10] | cell viability [11] | cell viability [12] | cell viability [13] | cell viability [14] | cell viability [15] | cell viability [16] | cell viability [17] | cell viability [18] | cell viability [19] | cell viability [20] | cell viability [21] | cell viability [22] | cell viability [23] | cell viability [24] | cell viability [25] | cell viability [26] | cell viability [27] | cell viability [28] | cell viability [29] | cell viability [30] | cell viability [31] | cell viability [32] | cell viability [33]
C[C@@H]1CC[C@@]2(CC[C@]3(C)\C(=C/C[C@@H]4[C@@]5(C)C[C@@H](O)[C@H](O)[C@@](C)(CO)[C@@H]5CC[C@@]34C)[C@@H]2[C@H]1C)C(O)=O | 109% | 113% | 108% | 122% | 121% | 120% | 116% | 116% | 122% | 121% | 112% | 116% | 123% | 113% | 116% | 119% | 121% | 126% | 131% | 123% | 119% | 110% | 109% | 113% | 114% | 109% | 121% | 118% | 128% | 121% | 125% | 110% | 123%
C#CCC(Cc1cnc2nc(N)nc(N)c2n1)c1ccc(C(=O)N[C@@H](CCC(=O)O)C(=O)O)cc1 (stereo partly drawn) | – | – | – | – | – | – | – | – | – | – | – | 125% | 119% | 128% | 128% | 44.8% | 47.4% | 29.9% | 27.4% | 23.9% | 29% | 30.8% | 120% | 110% | 115% | 125% | 37.1% | 25.6% | 20.2% | 19.9% | 17.2% | 20.3% | 19%
Clc1ccc(CCC(Cn2ccnc2)Sc2c(Cl)cccc2Cl)cc1 (stereo not drawn) | 92.8% | 92.5% | 96% | 90.2% | 93.9% | 102% | 101% | 94.7% | 91.9% | 91.2% | 91.5% | 90% | 94.6% | 96% | 103% | 99.8% | 94.8% | 87.8% | 96% | 91.1% | 91.9% | 63.2% | 81.1% | 72.8% | 84.4% | 95.1% | 84.6% | 86.4% | 90.1% | 83.7% | 89.1% | 90.1% | 64.7%
CCN(CC)CCCC(C)Nc1ccnc2cc(Cl)ccc12 (stereo not drawn) | 105% | 110% | 112% | 117% | 119% | 121% | 113% | 109% | 101% | 27.5% | 21% | 105% | 114% | 108% | 102% | 111% | 112% | 107% | 103% | 101% | 21.4% | 20.7% | 107% | 109% | 106% | 109% | 106% | 101% | 117% | 110% | 98.2% | 27.7% | 22%
CCC(=O)O[C@@]1(CC[C@H]2[C@@H]3CCC/4=C/C(=O)CC[C@]4(C)[C@H]3CC[C@]12C)C(=O)CO | 99.2% | 107% | 104% | 115% | 110% | 116% | 125% | 107% | 98.9% | 83.7% | 83.1% | 91.6% | 122% | 109% | 113% | 112% | 118% | 109% | 109% | 106% | 78.9% | 69.1% | 102% | 103% | 108% | 109% | 98.6% | 117% | 116% | 106% | 110% | 79.9% | 63%
CC(=O)N(O)CCCCCNC(=O)CCC(=O)N(O)CCCCCNC(=O)CCC(=O)N(O)CCCCCN.C[S+](=O)([O-])O | 93.5% | 76.5% | 40.7% | 10.3% | 11% | 11.2% | 10.8% | 9.88% | 9.31% | 9.06% | 9.61% | 98.4% | 110% | 99% | 99% | 54.9% | 13.4% | 13.2% | 11.6% | 16.4% | 11.4% | 12.3% | 97.8% | 108% | 114% | 99.2% | 79.9% | 18.4% | 20.7% | 16.7% | 15.2% | 16.1% | 22%
Cc1nnc(C(=O)NC(C)(C)c2nc(C(=O)NCc3ccc(F)cc3)c(O)c(=O)n2C)o1 | 114% | 110% | 104% | 108% | 109% | 103% | 109% | 90.9% | 102% | 102% | 107% | 107% | 110% | 99.3% | 106% | 102% | 104% | 107% | 95.1% | 103% | 103% | 90.7% | 97.8% | 100% | 104% | 103% | 98.7% | 95.5% | 107% | 94.4% | 95.2% | 91.5% | 92.9%
C/C=C(\C)C(=O)N[C@@H](c1ccccc1)[C@@H](O)C(=O)O[C@H]1C[C@@]2(O)[C@@H](OC(=O)c3ccccc3)[C@@H]3[C@]4(OC(C)=O)CO[C@@H]4C[C@H](O)[C@@]3(C)C(=O)[C@H](OC(C)=O)C(=C1C)C2(C)C | 45.3% | 23.3% | 25.7% | 15.9% | 22.2% | 19% | 21.4% | 20.3% | 19% | 19% | 14.2% | 46.4% | 20.9% | 25.7% | 13.8% | 15.1% | 17.2% | 16.8% | 16.6% | 13% | 13% | 10.6% | 49.5% | 27.8% | 32.8% | 23% | 23% | 23.4% | 30.4% | 28.5% | 24.6% | 24.8% | 21.1%
CCOc1cc(C(=O)Nc2ccc(Cl)c(-c3nc4ccccc4[nH]3)c2)cc(OCC)c1OCC | 74.3% | 82.5% | 89% | 91% | 91.9% | 92.9% | 98.9% | 96.1% | 92% | 94.1% | 84.6% | 81.6% | 89.8% | 86.7% | 88.4% | 95.8% | 92.9% | 86.7% | 86.5% | 86.6% | 95.4% | 60.8% | 78.9% | 76.7% | 84% | 86.5% | 85.8% | 81.2% | 88.3% | 82.8% | 79.8% | 81.1% | 53.6%
CN1CCC(CNc2ccc3ncc(-c4cccc(OC(F)(F)F)c4)n3n2)CC1 | 108% | 110% | 97.3% | 109% | 105% | 103% | 108% | 102% | 97.4% | 92.8% | 5.65% | 100% | 101% | 89.4% | 102% | 100% | 102% | 99.8% | 94.7% | 89.1% | 79.7% | 4.48% | 92.7% | 92.9% | 92.2% | 95.4% | 94.7% | 92.4% | 101% | 92.3% | 85.9% | 84.3% | 4.77%
Cc1ccc(C(=O)Nc2ccc([S+](=O)([O-])O)c3cc([S+](=O)([O-])O)cc([S+](=O)([O-])O)c23)cc1NC(=O)c1cccc(NC(=O)Nc2cccc(C(=O)Nc3cc(C(=O)Nc4ccc([S+](=O)([O-])O)c5cc([S+](=O)([O-])O)cc([S+](=O)([O-])O)c45)ccc3C)c2)c1 | 97.5% | 104% | 92.8% | 95.4% | 96.4% | 87.2% | 77.3% | 81.5% | 57.1% | 55.2% | 47% | 97.3% | 89.2% | 99.6% | 102% | 88.6% | 82.2% | 92.4% | 81.1% | 60.5% | 53.4% | 44.3% | 99.1% | 94.9% | 93.5% | 94% | 89.3% | 88.8% | 80% | 75.9% | 56.4% | 54% | 42.9%
CN(C)CCc1c[nH]c2ccc(Cn3cncn3)cc12 | 96.3% | 95% | 107% | 101% | 107% | 97% | 101% | 22.8% | 6.71% | 7.05% | 6.29% | 92% | 101% | 91.4% | 105% | 105% | 69.3% | 91.1% | 30.9% | 8.08% | 6.52% | 4.97% | 93.7% | 89.5% | 88.3% | 92.4% | 97.3% | 68.3% | 76.5% | 22.3% | 7.34% | 6.02% | 5.62%
CC(O)(C[S+](=O)([O-])c1ccc(F)cc1)C(=O)Nc1ccc(C#N)c(C(F)(F)F)c1 (stereo not drawn) | 94.8% | 85.9% | 97.2% | 96.8% | 93.7% | 100% | 102% | 101% | 95.6% | 102% | 69.9% | 84.6% | 92.9% | 92.3% | 93.9% | 94.5% | 91.1% | 93.2% | 98.9% | 90.3% | 88.9% | 52.7% | 78.3% | 85.5% | 90.9% | 90.3% | 95.9% | 86.2% | 98.2% | 96.2% | 90.4% | 74% | 49.4%

Reference: the supplement of paper PMC11451515
